Patent US20240270762A1, “PENICILLIN-BINDING PROTEIN INHIBITORS” (priority 2021, published 2024)
In brackets after ≈: the same amount, converted by molar mass.

Experiments:
[1] = biological target: T1, PBP2 from Neisseria gonorrhoeae (FA19) (Neisseria gonorrhoeae, UniProt P08149); test: Bocillin-FL fluorescence polarization competition binding, N. gonorrhoeae PBP2; details: fluorescence polarization competition binding assay using Bocillin-FL, read-out: N. gonorrhoeae PBP2 Potency
T1 construct: made in house
T1 sequence (P08149 whole entry): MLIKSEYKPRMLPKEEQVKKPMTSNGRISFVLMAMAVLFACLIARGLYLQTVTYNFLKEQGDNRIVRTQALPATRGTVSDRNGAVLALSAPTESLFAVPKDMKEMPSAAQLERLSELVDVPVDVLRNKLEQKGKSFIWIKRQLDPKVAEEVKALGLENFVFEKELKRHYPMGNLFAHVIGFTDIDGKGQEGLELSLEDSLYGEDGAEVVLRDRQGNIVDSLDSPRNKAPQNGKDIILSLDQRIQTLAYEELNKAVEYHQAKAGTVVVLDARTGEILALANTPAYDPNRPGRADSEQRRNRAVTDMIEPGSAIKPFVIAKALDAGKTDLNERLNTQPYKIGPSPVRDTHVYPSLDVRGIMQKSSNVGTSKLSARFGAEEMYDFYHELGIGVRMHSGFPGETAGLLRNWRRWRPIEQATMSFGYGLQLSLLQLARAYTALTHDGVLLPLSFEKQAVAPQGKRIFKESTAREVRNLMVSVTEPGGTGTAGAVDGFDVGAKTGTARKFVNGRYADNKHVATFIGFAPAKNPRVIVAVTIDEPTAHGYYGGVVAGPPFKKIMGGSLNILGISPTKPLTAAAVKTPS
Description: To determine the ability of boronic acid-based test PBP inhibitors to bind Penicillin Binding Proteins (PBPs), Bocillin-FL (fluorescently-labeled penicillin V; ThermoFisher Scientific) was used in a fluorescence polarization (FP) competition binding assay to assess inhibitor binding to PBP3 from Escherichia coli (K-12), PBP3 from Pseudomonas aeruginosa (PAO1), PBP1a and PBP3 from Acinetobacter baumannii (ATCC 19606), and PBP2 from Neisseria gonorrhoeae (FA19). PBPs were cloned and purified as described previously (E. coli PBP3, King, D. T, et al., ACS Infectious Diseases 2015, 1, 175-184; P. aeruginosa PBP3, Han et. al., PNAS 2010, 107 (51), 22002-22007; A. baumannii PBPs, Penwell et. al., Antimicrob. Agents Chemother. 2015, 59 (3), 1680-1689; N. gonorrhoeae PBP2, Singh et. al., J. Biol. Chem. 2019, 294 (38), 14020-14032). To establish assay conditions for competition binding, enzyme titration/saturation binding experiments were initially performed. Bocillin-FL was prepared at 0.2 μM in a buffer comprised of 50 mM Hepes (pH 8.0), 300 mM NaCl and 10% (v/v) glycerol for reactions with E. coli, P. aeruginosa and N. gonorrhoeae PBPs, and 25 mM Tris (pH 8.0), 200 mM NaCl, 10% (v/v) glycerol and 0.005% (v/v) Tween 20 for reactions with A. baumannii PBPs. Saturation binding was performed by mixing 40 μl of PBP solutions ranging in concentrations from 0-24 μM with 40 μl of the 0.2 μM Bocillin-FL solution, in individual wells of a black 384-well microplate. FP was measured immediately upon mixing (Excitation, 490 nm; Emission, 520 nm; g-factor, 0.96), using a Cytation3 (BioTek) microplate reader and measured continuously for up to 120 minutes. […] The competition binding assay (80 μl final volume) was validated using beta-lactams and PBPs at final concentrations of: 1.5 μM for E. coli PBP3; 0.75 μM for P. aeruginosa PBP3; 1 μM for A. baumannii PBP1a; 0.2 μM for A. baumannii PBP3; and 0.25 μM for N. gonorrhoeae PBP2. Bocillin-FL was at 0.1 μM (0.05 μM with A. baumannii PBP1a) and beta-lactam concentrations ranged from 0-1,000 μM. E. coli PBP3 was incubated with increasing concentrations of ampicillin in a black 384-well microplate (Corning) for 30 minutes. P. aeruginosa PBP3 was incubated for 15 minutes with aztreonam, whereas A. baumannii PBP1a and PBP3 were incubated for 15 minutes with meropenem, and then Bocillin-FL was added followed immediately by the FP measurement for up to 60 minutes. […] The beta-lactam potency was reported as the concentration of beta-lactam required to reduce the amount of PBP bound-Bocillin-FL by 50% (EC50). […] Binding assays for boronic acid PBP inhibitors were performed in an identical fashion for the respective PBPs.

E. coli AG100 = test: microbe, parasite or virus in culture; format: cell-based; details: Escherichia coli, AG100, read-out: MIC E. coli AG100
E. coli 901C = test: microbe, parasite or virus in culture; format: cell-based; details: Escherichia coli, read-out: MIC E. coli 901C
E. coli D22 = test: microbe, parasite or virus in culture; format: cell-based; details: Escherichia coli, D22, read-out: MIC E. coli D22
K. pneumoniae UMM = test: microbe, parasite or virus in culture; format: cell-based; details: Klebsiella pneumoniae, read-out: MIC K. pneumoniae UMM
K. pneumoniae SI-117 = test: microbe, parasite or virus in culture; format: cell-based; details: Klebsiella pneumoniae, SI117, read-out: MIC K. pneumoniae SI-117
P. aeruginosa ATCC 27853 = test: microbe, parasite or virus in culture; format: cell-based; details: Pseudomonas aeruginosa, ATCC27853, read-out: MIC P. aeruginosa ATCC 27853
P. aeruginosa ATCC 35151 = test: microbe, parasite or virus in culture; format: cell-based; details: Pseudomonas aeruginosa, ATCC35151, read-out: MIC P. aeruginosa ATCC 35151
N. gonorrhoeae FA1090 = test: Liquid broth MIC in Fastidious broth; details: Neisseria gonorrhoeae, FA1090, read-out: Minimum Inhibitory Concentration (MIC), N. gonorrhoeae FA 1090
N. gonorrhoeae MS11 = test: Liquid broth MIC in Fastidious broth; details: Neisseria gonorrhoeae, MS11, read-out: Minimum Inhibitory Concentration (MIC), N. gonorrhoeae MS11
N. gonorrhoeae WHO G = test: Liquid broth MIC in Fastidious broth; details: Neisseria gonorrhoeae, read-out: Minimum Inhibitory Concentration (MIC), N. gonorrhoeae WHO G
N. gonorrhoeae WHO L = test: Liquid broth MIC in Fastidious broth; details: Neisseria gonorrhoeae, read-out: Minimum Inhibitory Concentration (MIC), N. gonorrhoeae WHO L
Description: (§1) Liquid broth-based assays were used for antibacterial testing of PBP inhibitors in Neisseria gonorrhoeae. Briefly, cryo-preserved bacterial cultures of clinical strains were streaked for isolation on Chocolate Agar (72 g/L (2×) GC Agar Base (BD #228950) and 2% (2×) Hemoglobin was autoclaved at 121° C. for 20 minutes to sterilize. Once cooled to ˜50° C. the 2×GC Agar Base and 2× Hemoglobin solutions are combined and 1% IsoVitaleX Enrichment (BD #211876) was added to the solution). Strains were incubated at 36° C. and 5% CO2 to allow growth of colonies, 24 hours before inoculum preparation. 2-fold serial dilutions of test compounds were conducted in a 96 well plate with a final volume of 75 μL per well at 2-fold the final desired concentration in Fastidious broth (Remel #R07664). For preparation of assay inoculum, a direct suspension was prepared by aseptically swabbing 10-15 colonies from agar plates into culture tubes containing 2 mL of fresh sterile saline. After the dilution plates were set up, direct suspensions were then diluted in a cuvette containing sterile saline and the optical density was measured at 600 nm. Inocula were diluted such that 75 μL of this culture in Fastidious broth results in a starting bacterial concentration of 5×10^5 CFU/mL when added to the dilution plates. The plates were incubated for ˜24 hours at 36° C. and 5% CO2.

N. gonorrhoeae WHO K = test: Liquid broth MIC in Fastidious broth; details: Neisseria gonorrhoeae, read-out: Minimum Inhibitory Concentration (MIC), N. gonorrhoeae WHO K
Description: as §1

N. gonorrhoeae WHO Z = test: Liquid broth MIC in Fastidious broth; details: Neisseria gonorrhoeae, read-out: Minimum Inhibitory Concentration (MIC), N. gonorrhoeae WHO Z

Row | SMILES | EC50 [1] [µM] | MIC (E. coli AG100) [µg/mL] | MIC (E. coli 901C) [µg/mL] | MIC (E. coli D22) [µg/mL] | MIC (K. pneumoniae UMM) [µg/mL] | MIC (K. pneumoniae SI-117) [µg/mL] | MIC (P. aeruginosa ATCC 27853) [µg/mL] | MIC (P. aeruginosa ATCC 35151) [µg/mL] | MIC (N. gonorrhoeae FA1090) [µg/mL] | MIC (N. gonorrhoeae MS11) [µg/mL] | MIC (N. gonorrhoeae WHO G) [µg/mL] | MIC (N. gonorrhoeae WHO L) [µg/mL] | MIC (N. gonorrhoeae WHO K) [µg/mL] | MIC (N. gonorrhoeae WHO Z) [µg/mL]
1 | Nc1nc(C(=O)N[C@@H](C(=O)N[C@H]2Cc3cccc(C(=O)O)c3OB2O)c2ccc(P(=O)(O)O)cc2)cs1 (racemic) [Example 51, (R)-3-((S)-2-(2-aminothiazole-4-carboxamido)-2-(4-phosphonophenyl)acetamido)-2-hydroxy-3,4-dihydro-2H-benzo[e][1,2]oxaborinine-8-carboxylic acid and (R)-3-((R)-2-(2-aminothiazole-4-carboxamido)-2-(4-phosphonophenyl)acetamido)-2-hydroxy-3,4-dihydro-2H-benzo[e][1,2]oxaborinine-8-carboxylic acid] | < 10 | > 128 | < 1 | 2 to 4 (≈ 3.66 to 7.32 µM) | 32 to 64 (≈ 58.6 to 117 µM) | > 128 | > 128 | 2 to 4 (≈ 3.66 to 7.32 µM) | < 1 | < 1 | < 1 | 4 to 8 (≈ 7.32 to 14.6 µM) | 1 to 2 (≈ 1.83 to 3.66 µM) | 1 to 2 (≈ 1.83 to 3.66 µM)
2 | CCN1CCN(C(=O)N[C@@H](C(=O)N[C@H]2Cc3cccc(C(=O)O)c3OB2O)c2ccc(P(=O)(O)O)c(F)c2)C(=O)C1=O (single isomer, unassigned) [Example 7] | < 10 | 8 to 16 (≈ 13.2 to 26.4 µM) | < 1 | 2 to 4 (≈ 3.3 to 6.6 µM) | 32 to 64 (≈ 52.8 to 106 µM) | > 128 | 32 to 64 (≈ 52.8 to 106 µM) | < 1 | < 1 | < 1 | < 1 | < 1 | < 1 | < 1
3 | CCN1CCN(C(=O)N[C@@H](C(=O)N[C@H]2Cc3ccc(F)c(C(=O)O)c3OB2O)c2ccc(P(=O)(O)O)cc2)C(=O)C1=O (single isomer, unassigned) [Example 10] | < 10 | > 128 | < 1 | 8 to 16 (≈ 13.2 to 26.4 µM) | > 128 | > 128 | 32 to 64 (≈ 52.8 to 106 µM) | < 1 | < 1 | < 1 | < 1 | < 1 | < 1 | < 1
4 | CS(=O)(=O)N1CCN(C(=O)N[C@@H](C(=O)N[C@H]2Cc3cccc(C(=O)O)c3OB2O)c2ccc(P(=O)(O)O)c(F)c2F)C1=O (single isomer, unassigned) [Example 13] | < 10 | 32 to 64 (≈ 49.5 to 99 µM) | < 1 | 8 to 16 (≈ 12.4 to 24.8 µM) | > 128 | > 128 | > 128 | 2 to 4 (≈ 3.09 to 6.19 µM) | < 1 | < 1 | < 1 | < 1 | < 1 | < 1
5 | CS(=O)(=O)N1CCN(C(=O)N[C@@H](C(=O)N[C@H]2Cc3cccc(C(=O)O)c3OB2O)c2ccc(P(=O)(O)O)c(F)c2)C1=O (single isomer, unassigned) [Example 15] | < 10 | 32 to 64 (≈ 50.9 to 102 µM) | < 1 | 2 to 4 (≈ 3.18 to 6.37 µM) | > 128 | > 128 | > 128 | 2 to 4 (≈ 3.18 to 6.37 µM) | < 1 | < 1 | < 1 | < 1 | < 1 | < 1
6 | CS(=O)(=O)N1CCN(C(=O)N[C@@H](C(=O)N[C@H]2Cc3cccc(C(=O)O)c3OB2O)c2cc(F)c(P(=O)(O)O)c(F)c2)C1=O (single isomer, unassigned) [Example 18] | < 10 | 32 to 64 (≈ 49.5 to 99 µM) | < 1 | 8 to 16 (≈ 12.4 to 24.8 µM) | 32 to 64 (≈ 49.5 to 99 µM) | > 128 | > 128 | 2 to 4 (≈ 3.09 to 6.19 µM) | < 1 | < 1 | < 1 | < 1 | < 1 | < 1
7 | O=C(O)c1c(F)ccc2c1OB(O)[C@@H](NC(=O)C(NC(=O)N1CCN(Cc3ccc(O)c(O)c3Cl)C(=O)C1=O)c1ccc(P(=O)(O)O)cc1)C2 (stereo partly drawn) [Example 8, (3R)-3-(2-(4-(2-chloro-3,4-dihydroxybenzyl)-2,3-dioxopiperazine-1-carboxamido)-2-(4-phosphonophenyl)acetamido)-7-fluoro-2-hydroxy-3,4-dihydro-2H-benzo[e][1,2]oxaborinine-8-carboxylic acid] | < 10 |  | < 1 | < 1 | 2 to 4 (≈ 2.72 to 5.44 µM) | 8 to 16 (≈ 10.9 to 21.8 µM) | < 1 | < 1 | < 1 | < 1 | < 1 | 4 to 8 (≈ 5.44 to 10.9 µM) | 1 to 2 (≈ 1.36 to 2.72 µM) | < 1
